# In patent publication US20050113274A1, “Hydrocarbyl aminohydrocarbonoates and aminohydrocarbonol hydrocarbonoates as antimicrobial and antiviral agents” (priority 2003, published 2005):
# Experiments:
# [1] = system: stratum corneum proteins; conditions: FIG. 1; compared with control; cited from earlier work
# [2] = system: Aspergillus niger; assay: USP Antimicrobial Preservatives Effectiveness Test, A. niger; assay type: cell-based; conditions: DDAIP formulation of Example 1
# Source text: (§1) Thus, in the presence of Pseudomonas aeruginosa, […], Candida albicans, Streptococcus aureus, and Escherichia coli after 7 days of study less than 10 cfu/ml remained, with Aspergillus niger this value was observed after 21 days of study.
# [3] = system: microorganism growth; assay: Visual microorganism growth testing of formulations; assay type: cell-based; conditions: room temperature and refrigerator conditions; test period of 2 months
# Procedure: Additional formulations (such as in the examples that follow) were prepared and submitted to visual microorganism growth testing at room temperature (RT) and refrigerator conditions. The examples given below constitute some typical samples of various formulations prepared and tested.
# [4] = system: Streptococcus aureus; assay: USP Antimicrobial Preservatives Effectiveness Test, S. aureus; assay type: cell-based; conditions: DDAIP formulation of Example 1
# Source text: as §1
# [5] = system: Candida albicans; assay: USP Antimicrobial Preservatives Effectiveness Test, C. albicans; assay type: cell-based; conditions: DDAIP formulation of Example 1
# Source text: as §1
# [6] = system: Escherichia coli; assay: USP Antimicrobial Preservatives Effectiveness Test, E. coli; assay type: cell-based; conditions: DDAIP formulation of Example 1
# Source text: as §1
# [7] = system: Pseudomonas aeruginosa; assay: USP Antimicrobial Preservatives Effectiveness Test, P. aeruginosa; assay type: cell-based; conditions: DDAIP formulation of Example 1
# Source text: as §1
compound,measurement,setting,value
"CCO [ethanol, reference compound]",number of free thiol groups of stratum corneum proteins (effect on protein domain),[1],affects protein domain
"CCCCCCCCCCCCOC(=O)C(C)N(C)C (stereo not shown) [DDAIP, Dodecyl 2-(N,N-dimethylamino)propionate]","A. niger (cfu/ml), 7 days",[2]; 7 days,1.40E+03 cfu/ml
same,"A. niger (cfu/ml), 14 days",[2]; 14 days,3.00E+02 cfu/ml
same,"A. niger (cfu/ml), Time Zero",[2]; day zero count,3.05E+05 cfu/ml
same,visual microorganism growth,[3],no growth was observed
same,"S. aureus (cfu/ml), 7 days",[4]; 7 days,<10 cfu/ml
same,"S. aureus (cfu/ml), 14 days",[4]; 14 days,<10 cfu/ml
same,"S. aureus (cfu/ml), 21 days",[4]; 21 days,<10 cfu/ml
same,"S. aureus (cfu/ml), 28 days",[4]; 28 days,<10 cfu/ml
same,"S. aureus (cfu/ml), Time Zero",[4]; day zero count,6.90E+05 cfu/ml
same,"C. albicans (cfu/ml), 7 days",[5]; 7 days,<10 cfu/ml
same,"C. albicans (cfu/ml), 14 days",[5]; 14 days,<10 cfu/ml
same,"C. albicans (cfu/ml), Time Zero",[5]; day zero count,3.45E+05 cfu/ml
same,"E. coli (cfu/ml), 7 days",[6]; 7 days,<1 cfu/ml
same,"E. coli (cfu/ml), 14 days",[6]; 14 days,<1 cfu/ml
same,"E. coli (cfu/ml), Time Zero",[6]; day zero count,5.70E+05 cfu/ml
same,"P. aeruginosa (cfu/ml), 7 days",[7]; 7 days,<10 cfu/ml
same,"P. aeruginosa (cfu/ml), 14 days",[7]; 14 days,<10 cfu/ml
same,"P. aeruginosa (cfu/ml), 21 days",[7]; 21 days,<10 cfu/ml
same,"P. aeruginosa (cfu/ml), 28 days",[7]; 28 days,<10 cfu/ml
same,"P. aeruginosa (cfu/ml), Time Zero",[7]; day zero count,3.55E+05 cfu/ml
same,number of free thiol groups of stratum corneum proteins (effect on protein domain),[1],effect on the protein domain
